Earlier results in US20060110477A1, “Composition and method for supporting and promoting healthy sexual function and prevention and treatment of sexual dysfunction” (priority 2004, published 2006).

Biological target: rat cGMP-specific PDE5 (Rattus norvegicus, UniProt O54735)

In the case of COc1cc(O)c(CC=C(C)C)c2oc(-c3ccc(O)cc3)c(O)c(=O)c12 [sophoflavescenol], the “relative potency against cGMP PDE5” value (among the flavonols in the ethyl acetate fraction) is given as “most potent” and the “IC50 ratio PDE4/PDE5” value (selectivity between PDE isoforms) is given as 196.2.
